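These data come from cells grown in 96-well plates and exposed to compound for 48 hours at five concentrations. The concentration for 50% growth inhibition is given as GI50.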 The source made the active and inactive calls. Cut-off read from the data, not from the text of the source: active = GI50 up to about 1.1 µM and inactive = higher.
Columns and labels:
Assay in all cases: NCI tumour cell line growth inhibition, 48 h
T47D = test system: T47D
UO-31 = test system: UO-31
CAKI-1 = test system: CAKI-1
EKVX = test system: EKVX
SF-539 = test system: SF-539
Malme-3M = test system: Malme-3M
MDA-MB-231 = test system: MDA-MB-231
RXF 393 = test system: RXF 393
SK-MEL-28 = test system: SK-MEL-28
SK-MEL-2 = test system: SK-MEL-2
HT-29 = test system: HT-29
NCI/ADR-RES = test system: NCI/ADR-RES
M14 = test system: M14
NCI-H23 = test system: NCI-H23
Hs-578T = test system: Hs-578T
SNB-75 = test system: SNB-75
OVCAR-5 = test system: OVCAR-5
MOLT-4 = test system: MOLT-4
MDA-N = test system: MDA-N
SK-MEL-5 = test system: SK-MEL-5
MDA-MB-435 = test system: MDA-MB-435
MCF7 = test system: MCF7
HOP-92 = test system: HOP-92
RPMI-8226 = test system: RPMI-8226
SNB-19 = test system: SNB-19
A549 = test system: A549
HCT-15 = test system: HCT-15
SR = test system: SR
COLO 205 = test system: COLO 205
OVCAR-8 = test system: OVCAR-8
SF-268 = test system: SF-268
PC-3 = test system: PC-3
HCT-116 = test system: HCT-116
K562 = test system: K562
NCI-H522 = test system: NCI-H522
CCRF-CEM = test system: CCRF-CEM
HL-60 = test system: HL-60
OVCAR-4 = test system: OVCAR-4
UACC-62 = test system: UACC-62
A498 = test system: A498
ACHN = test system: ACHN
SW-620 = test system: SW-620
OVCAR-3 = test system: OVCAR-3
DU-145 = test system: DU-145
BT-549 = test system: BT-549
NCI-H226 = test system: NCI-H226
786-0 = test system: 786-0
LOX IMVI = test system: LOX IMVI
SN12C = test system: SN12C

With COc1cc(S(=O)(=O)Nc2ccc(-c3csc(N)n3)cc2)ccc1Cl the GI50 (T47D) was 7.87 µM (inactive), the GI50 (UO-31) was 19.8 µM (inactive) and the GI50 (CAKI-1) was 20.2 µM (inactive). The GI50 (EKVX) was 16.6 µM (inactive), the GI50 (SF-539) was 47.6 µM (inactive) and the GI50 (Malme-3M) was 16.6 µM (inactive). For the same compound, the GI50 (MDA-MB-231) was 16.9 µM (inactive), the GI50 (RXF 393) was 12.2 µM (inactive) and the GI50 (SK-MEL-28) was 21.3 µM (inactive). The GI50 (SK-MEL-2) was 18.8 µM (inactive), the GI50 (HT-29) was 20.7 µM (inactive) and the GI50 (NCI/ADR-RES) was 33.9 µM (inactive). The GI50 (M14) was 18.6 µM (inactive), the GI50 (NCI-H23) was 21.2 µM (inactive) and the GI50 (Hs-578T) was 53.7 µM (inactive). For the same compound, the GI50 (SNB-75) was 21.4 µM (inactive), the GI50 (OVCAR-5) was 23.3 µM (inactive) and the GI50 (MOLT-4) was 11.1 µM (inactive). The GI50 (MDA-N) was 19.4 µM (inactive), the GI50 (SK-MEL-5) was 16.6 µM (inactive) and the GI50 (MDA-MB-435) was 20.8 µM (inactive). The GI50 (MCF7) was 15.2 µM (inactive), the GI50 (HOP-92) was 22.6 µM (inactive) and the GI50 (RPMI-8226) was 19.5 µM (inactive). For the same compound, the GI50 (SNB-19) was 19.5 µM (inactive), the GI50 (A549) was 18.4 µM (inactive) and the GI50 (HCT-15) was 20.1 µM. For the same compound, the GI50 (SR) was 21.9 µM (inactive), the GI50 (COLO 205) was 17 µM (inactive) and the GI50 (OVCAR-8) was 22.3 µM (inactive). For the same compound, the GI50 (SF-268) was 34.4 µM (inactive), the GI50 (PC-3) was 15.3 µM (inactive) and the GI50 (HCT-116) was 16.2 µM (inactive). The GI50 (K562) was 18.5 µM (inactive), the GI50 (NCI-H522) was 17.9 µM (inactive) and the GI50 (CCRF-CEM) was 15.5 µM (inactive). For the same compound, the GI50 (HL-60) was 15 µM (inactive), the GI50 (OVCAR-4) was 14.1 µM (inactive) and the GI50 (UACC-62) was 15.2 µM (inactive). For the same compound, the GI50 (A498) was 18.2 µM (inactive), the GI50 (ACHN) was 17.4 µM (inactive) and the GI50 (SW-620) was 24.3 µM (inactive). For the same compound, the GI50 (OVCAR-3) was 14.9 µM (inactive), the GI50 (DU-145) was 18 µM (inactive) and the GI50 (BT-549) was 22.3 µM (inactive). The GI50 (NCI-H226) was 26.4 µM (inactive), the GI50 (786-0) was 16.4 µM (inactive) and the GI50 (LOX IMVI) was 18.7 µM (inactive). For the same compound, the GI50 (SN12C) was 18.3 µM (inactive).

Source: ChEMBL document CHEMBL1201862, “PubChem BioAssay data set” (2004)
